According to patent publication US12091425B2 (AMGEN INC., priority 2016, dated 2024):

How the values were obtained:
[1] = target: T1, Mcl-1/Bim interaction, recombinant human Mcl-1 (171-327) (Homo sapiens, UniProt Q07820); experiment: Cell free Mcl-1: Bim Affinity Assay (Mcl-1 HTRF); format: binding
T1 construct: made in house
In short: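 Compounds were mixed with the protein and a biotinylated Bim peptide spanning human residues 51-76. Plates were left overnight, then TR-FRET signal was measured. A four-parameter sigmoidal model applied to duplicate competition data gave IC50.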

[2] = system: OPM-2 human multiple myeloma cell line; experiment: Cell Viability Assay (OPM-2 10 FBS); format: cell-based; details: OPM-2 cells, CellTiter-Glo
In short: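 ATP-based luminescence (CellTiter-Glo) measured after a 16 h compound treatment of OPM-2 cells seeded at 3000 cells/well in 10% FBS medium. IC50 values derived by 4-parameter logistic fitting of serial dilutions.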

[3] = TR-FRET, 0.1 nM Mcl-1 (171-327), 0.05 nM biotin-Bim (51-76)
[4] = cell free Mcl-1:Bim TR-FRET, recombinant human Mcl-1 (171-327)

T1 sequence (Q07820 171-327): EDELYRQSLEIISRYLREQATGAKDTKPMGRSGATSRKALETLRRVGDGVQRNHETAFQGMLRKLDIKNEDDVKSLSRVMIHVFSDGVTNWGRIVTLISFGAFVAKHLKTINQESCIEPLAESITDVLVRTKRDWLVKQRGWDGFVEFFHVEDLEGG

Row | SMILES | IC50 [1, 3] [nM] | IC50 ([2]; Homo sapiens, OPM-2, 16 h, 16 h incubation) [nM] | IC50 [1, 4] [nM] | IC50 ([2]; 16 h) [nM]
1 | C[C@@H]1[C@@H](C)S(=O)(=O)NC(=O)c2ccc3c(c2)N(C[C@@H]2CC[C@H]2[C@@H](O)CC[C@@H]1C)C[C@@]1(CCCc2cc(Cl)ccc21)CO3 [Example 1045, (1S,3′R,6′R,7′S,10′S,11′S,12′R)-6-chloro-7′-hydroxy-10′,11′,12′-trimethyl-3,4-dihydro-2H,15′H-spiro[naphthalene-1,22′-[20]oxa[13]thia[1,14]diazatetracyclo[14.7.2.0^3,6.0^19,24]pentacosa [16,18,24]trien]-15′-one 13′,13′-dioxide] | 0.294 | 1140 | – | –
2 | COCCO[C@H]1/C=C/C[C@H]2C[C@@H]2S(=O)(=O)NC(=O)c2ccc3c(c2)N(C[C@@H]2CC[C@H]21)C[C@@]1(CCCc2cc(Cl)ccc21)CO3 (single isomer, unassigned) [Example 805] | – | – | 1.06 | 718
3 | CC[C@@H]1CC[C@H](O)/C=C/[C@@H]2CC[C@H]2CN2C[C@@]3(CCCc4cc(Cl)ccc43)COc3ccc(cc32)C(=O)NS1(=O)=O (single isomer, unassigned) [Example 197] | 1.12 | – | – | 2600
4 | CC(C)C[C@@H]1C[C@@H](C)/C=C/[C@H](O)[C@@H]2CC[C@H]2CN2C[C@@]3(CCCc4cc(Cl)ccc43)COc3ccc(cc32)C(=O)NS1(=O)=O (single isomer, unassigned) [Example 480] | – | – | 0.394 | 1080
5 | O=C1NS(=O)(=O)N2CCC[C@@H]2C/C=C/[C@H](O)[C@@H]2CC[C@H]2CN2C[C@@]3(CCCc4cc(Cl)ccc43)COc3ccc1cc32 [Example 347, (1S,3′R,6′R,7′S,8′E,11R)-6-chloro-7′-hydroxy-3,4-dihydro-2H,18′H-spiro[naphthalene-1,25′-[23]oxa[16]thia[1,15,17]triazapentacyclo[17.7.2.0^3,6.0^11,15.0^22,27]octacosa[8,19,21,27]tetraen]-18′-one 16′,16′-dioxide] | 7.22 | – | – | 5550
6 | COC[C@@H]1C[C@@H](C)/C=C/[C@H](OC)[C@@H]2CC[C@H]2CN2C[C@@]3(CCCc4cc(Cl)ccc43)COc3ccc(cc32)C(=O)NS1(=O)=O (single isomer, unassigned) [Example 473] | – | – | 0.369 | 160
7 | COC[C@@H]1C[C@H](C)/C=C/[C@H](O)[C@@H]2CC[C@H]2CN2C[C@@]3(CCCc4cc(Cl)ccc43)COc3ccc(cc32)C(=O)NS1(=O)=O (single isomer, unassigned) [Example 472] | – | – | 0.27 | 206
8 | O=C1NS(=O)(=O)C(Cc2ccc(Br)cc2)CCC=CC(O)C2CCC2CN2CC3(CCCc4cc(Cl)ccc43)COc3ccc1cc32 (single isomer, unassigned) [Example 633] | – | – | 23.1 | 17800
9 | CO[C@H]1/C=C/C[C@H](C)[C@@H](CC(F)(F)F)S(=O)(=O)NC(=O)c2ccc3c(c2)N(C[C@@H]2CC[C@H]21)C[C@@]1(CCCc2cc(Cl)ccc21)CO3 (single isomer, unassigned) [Example 689] | – | – | 2.53 | 836
10 | CO[C@H](C)C[C@H]1CC/C=C/[C@H](O)[C@@H]2CC[C@H]2CN2C[C@@]3(CCCc4cc(Cl)ccc43)COc3ccc(cc32)C(=O)NS1(=O)=O (single isomer, unassigned) [Example 508] | – | – | 6.02 | 2470
11 | O=C1NS(=O)(=O)[C@@H]2CCC[C@@H](/C=C/[C@H](O)[C@@H]3CC[C@H]3CN3C[C@@]4(CCCc5cc(Cl)ccc54)COc4ccc1cc43)C2 (single isomer, unassigned) [Example 105] | 0.589 | – | – | 330
